Key:
Assay in all cases: relative viability (nuclei count vs DMSO), 5 days (fraction); higher = more cells survive
[1] = compound: C=CC(=O)N1CCC[C@@H](n2nc(-c3ccc(Oc4ccccc4)cc3)c3c(N)ncnc32)C1 [Ibrutinib] + COc1cccc2cc(-c3nc([C@H]4CC[C@H](C(=O)O)CC4)n4ncnc(N)c34)[nH]c12 [OSI-027] (partner 0.5 µM)
Procedure, shortened: (§1)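 Relative viability divides the nuclei count in treated wells by that in vehicle wells. Lung cancer cell lines were seeded in 1536-well plates, dosed by pin tool the next day, and fixed and stained after 5 days in one step with final 0.05% Triton X-100, 1% formaldehyde and 1 ug/ml Hoechst. Dosing was a single drug or a fixed anchor-drug dose plus five library-drug doses (not always all listed) in √10 steps, and values are medians of duplicate plates imaged at 4×.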

[2] = compound: C=CC(=O)N1CCC[C@@H](n2nc(-c3ccc(Oc4ccccc4)cc3)c3c(N)ncnc32)C1 [Ibrutinib] + C[C@@H](Oc1cc(-c2cnn(C3CCNCC3)c2)cnc1N)c1c(Cl)ccc(F)c1Cl [Crizotinib] (partner 1 µM)
Procedure, shortened: as §1

[3] = compound: C=CC(=O)N1CCC[C@@H](n2nc(-c3ccc(Oc4ccccc4)cc3)c3c(N)ncnc32)C1 [Ibrutinib] + C[C@]1(O)C[C@@H](c2nc(-c3ccc4ccc(-c5ccccc5)nc4c3)c3c(N)nccn32)C1 [Linsitinib] (partner 1 µM)
Procedure, shortened: as §1

[4] = compound: C=CC(=O)N1CCC[C@@H](n2nc(-c3ccc(Oc4ccccc4)cc3)c3c(N)ncnc32)C1 [Ibrutinib] + O=C(CCCCCCC(=O)Nc1ccccc1)NO [Vorinostat] (partner 1 µM)
Procedure, shortened: as §1

Cell Line | relative viability ([1]; first compound 0.005 µM) | relative viability ([1]; first compound 0.01581 µM) | relative viability ([1]; first compound 0.05 µM) | relative viability ([1]; first compound 0.1581 µM) | relative viability ([1]; first compound 0.5 µM) | relative viability ([2]; first compound 0.005 µM) | relative viability ([2]; first compound 0.01581 µM) | relative viability ([2]; first compound 0.05 µM) | relative viability ([2]; first compound 0.1581 µM) | relative viability ([2]; first compound 0.5 µM) | relative viability ([3]; first compound 0.005 µM) | relative viability ([3]; first compound 0.01581 µM) | relative viability ([3]; first compound 0.05 µM) | relative viability ([3]; first compound 0.1581 µM) | relative viability ([3]; first compound 0.5 µM) | relative viability ([4]; first compound 0.005 µM) | relative viability ([4]; first compound 0.01581 µM) | relative viability ([4]; first compound 0.05 µM) | relative viability ([4]; first compound 0.1581 µM) | relative viability ([4]; first compound 0.5 µM)
NCI-H1666 | 0.89 | 0.747 | 0.737 | 0.847 | 0.621 | 1.01 | 0.864 | 0.904 | 0.932 | 0.697 | 0.86 | 0.628 | 0.615 | 0.955 | 0.422 | 0.939 | 1.05 | 1.07 | 1.12 | 0.863
NCI-H1734 | 0.448 | 0.528 | 0.611 | 0.665 | 0.564 | 0.587 | 0.689 | 0.675 | 0.761 | 0.67 | 0.801 | 0.887 | 0.885 | 0.885 | 0.745 | 0.74 | 0.789 | 0.781 | 0.92 | 0.772
NCI-H1755 | 0.636 | 0.552 | 0.79 | 0.81 | 0.777 | 0.832 | – | 0.909 | 0.909 | 0.852 | 1.02 | 0.92 | 1.06 | 1.02 | 0.903 | 0.739 | 0.841 | 0.659 | 0.824 | 0.751
NCI-H1915 | 0.557 | 0.619 | 0.606 | 0.482 | 0.682 | – | 0.858 | 0.92 | 0.921 | 0.897 | – | 1.03 | 1.12 | 1.13 | 1.1 | 0.453 | 0.484 | 0.438 | 0.678 | 0.494
NCI-H1944 | 0.331 | 0.33 | 0.329 | 0.339 | 0.331 | 0.99 | 0.88 | 0.963 | – | 0.782 | 1.05 | 1.01 | 1.23 | 1.05 | 0.568 | 0.551 | 0.47 | 0.517 | 0.47 | 0.467
NCI-H1975 | 0.681 | 0.624 | 0.498 | 0.692 | 0.357 | 0.986 | 0.859 | 0.88 | 0.96 | 0.558 | 0.916 | 0.834 | 0.844 | 0.985 | 0.503 | 0.759 | 0.556 | 0.649 | 0.792 | 0.324
NCI-H1993 | 0.574 | 0.566 | 0.584 | 0.552 | 0.692 | 0.843 | 0.744 | 0.704 | – | 0.713 | 0.738 | 0.698 | 0.694 | – | 0.647 | 0.443 | 0.759 | 1.13 | 1.01 | 0.486
NCI-H2009 | 0.522 | 0.631 | 0.585 | 0.729 | 0.804 | 1.04 | 1.04 | 1.08 | 1.11 | 1.1 | 1.21 | 1.13 | 1.14 | 1.23 | 1.18 | 0.728 | 0.705 | 0.764 | 0.759 | 0.742
NCI-H2023 | 0.28 | 0.315 | 0.349 | 0.504 | 0.375 | 0.55 | 0.637 | 0.423 | 0.603 | 0.356 | 0.601 | 0.494 | 0.53 | 0.596 | 0.456 | 0.565 | 0.6 | 0.48 | 0.918 | 0.49
NCI-H2085 | 0.502 | 0.627 | 0.663 | 0.556 | 0.562 | 0.92 | 0.852 | 0.772 | 0.918 | 0.706 | 1.04 | 0.884 | 0.865 | 0.895 | 0.775 | 0.85 | 0.708 | 0.74 | 0.62 | 0.695
NCI-H2087 | 0.407 | 0.504 | 1.08 | – | 0.542 | 0.849 | 0.949 | 1.04 | 0.872 | 0.862 | 1.07 | 1.06 | – | 1.02 | 0.943 | 0.97 | 0.745 | 0.385 | – | 0.538
NCI-H2126 | – | 0.59 | 0.537 | 0.537 | 0.632 | – | 1 | 0.994 | 1.06 | 0.936 | – | 0.66 | 0.705 | 0.732 | 0.539 | 0.454 | 0.748 | 0.644 | 0.725 | 0.56
NCI-H2228 | 0.511 | – | 0.478 | 0.481 | 0.509 | 0.4 | 0.359 | 0.36 | 0.569 | 0.359 | 0.62 | 0.689 | 0.71 | 0.936 | 0.454 | 0.696 | 0.486 | 0.569 | 0.502 | 0.648
NCI-H2347 | – | 0.383 | 0.374 | 0.302 | 0.57 | 0.679 | 0.684 | 0.739 | 0.592 | 0.696 | – | 0.979 | 1.04 | 0.816 | 1.05 | 0.59 | 0.546 | 0.566 | 0.493 | 0.53
NCI-H2405 | 0.54 | 0.627 | 0.63 | 0.662 | 0.638 | – | 0.886 | 0.779 | 0.824 | 0.8 | 0.849 | 0.801 | 0.929 | – | 0.869 | 0.913 | 1.12 | – | – | 1.03
NCI-H3122 | 0.895 | 0.921 | 0.955 | 0.671 | 1.32 | 0.237 | 0.263 | 0.254 | 0.253 | 0.244 | – | 1.03 | 1.03 | 0.992 | 1.07 | 1.05 | 0.944 | 0.874 | 0.858 | 1.06
PC-3 [JPC-3] | 0.635 | 0.7 | 0.619 | 0.84 | 0.584 | 0.988 | 0.907 | 0.975 | 0.987 | 0.6 | 0.917 | 0.93 | 0.956 | 0.955 | 0.619 | 0.664 | 0.774 | 0.497 | 0.289 | 0.399

Source: the supplement of paper PMC10307832
